From patent US20240317744A1, “Bicyclic Ureas As Kinase Inhibitors” (Incyte Corporation, priority 2023, published 2024)

Tests used:
[1] = target: catalytic domain (JH1, amino acids 808-1132) of human JAK2 (Homo sapiens, UniProt O60674); assay: JAK2 HTRF Enzyme Activity Assay; format: biochemical; settings: ATP 30 µM, 60 minutes at 25° C.; read-out: V617F ENZ 30 UM
[2] = target: T1, pseudo-kinase domain (JH2, amino-acids 536-812) of human V617F mutant JAK2 (Homo sapiens, UniProt O60674, F794H/V617F/W659A/W777A); assay: JAK2 LanthaScreen JH2-V617F Binding Assay; settings: JAK2 JH2-V617F 0.26 nM, 50 nM tracer, 1 hour at 25° C.; read-out: JH2 BIND V617F
T1 construct: pseudo-kinase domain (JH2, amino-acids 536-812 with 3 surface mutations W659A, W777A, F794H); His (C); purchased BPS Bioscience 79498; host or cells: baculovirus expression system
Method in brief: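 Binding was measured as TR-FRET displacement of 50 nM tracer from 0.26 nM biotinylated His-Avi protein, incubated one hour at 25° C; IC50 from a four-parameter fit.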

[3] = target: T2, catalytic domain (JH1, amino acids 826-1132) of human JAK2 (Homo sapiens, UniProt O60674); assay: JAK2 LanthaScreen JH1 Binding Assay; settings: JAK2 JH1 1.5 nM, 50 nM tracer, 2 hours at 25° C.; read-out: JH1 BIND
T2 construct: catalytic domain (JH1, amino acids 826-1132) of human JAK2; FLAG (N); biotin (biotinylated); purchased Carna Biosciences 08-445-20N; host or cells: baculovirus expression system
Method in brief: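 TR-FRET tracer-displacement format: compound IC50 from four-parameter curves after 2 h at 25° C. Reaction held 1.5 nM biotinylated, FLAG-tagged JH1 (aa 826-1132), 50 nM tracer, 0.5 nM Streptavidin-Tb, pH 7.5 Tris buffer; 2 mM ATP set nonspecific background.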

[4] = target: T3, pseudo-kinase domain (JH2, amino-acids 536-812) of human Wild Type JAK2 (Homo sapiens, UniProt O60674, F794H/W659A/W777A); assay: JAK2 LanthaScreen JH2-WT Binding Assay; settings: JAK2 JH2-WT 0.145 nM, 50 nM tracer, 1 hour at 25° C.; read-out: JH2 BIND WT
T3 construct: pseudo-kinase domain (JH2, amino-acids 536-812 with 3 surface mutations W659A, W777A, F794H); His (C); purchased BPS Bioscience 79463; host or cells: baculovirus expression system
Method in brief: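 Biotinylated C-terminal His-Avi-tagged JH2 (residues 536-812, baculovirus-expressed) at 0.145 nM was incubated with serially diluted compounds, 50 nM fluorescent JAK2-JH2 tracer and 0.25 nM streptavidin-Tb cryptate in pH 7.5 Tris buffer with MgCl2, Brij-35, BSA, EGTA, glycerol and DTT. LanthaScreen TR-FRET was read after 1 hour at 25° C; IC50 came from four-parameter fits.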

T2 sequence (O60674 826-1132): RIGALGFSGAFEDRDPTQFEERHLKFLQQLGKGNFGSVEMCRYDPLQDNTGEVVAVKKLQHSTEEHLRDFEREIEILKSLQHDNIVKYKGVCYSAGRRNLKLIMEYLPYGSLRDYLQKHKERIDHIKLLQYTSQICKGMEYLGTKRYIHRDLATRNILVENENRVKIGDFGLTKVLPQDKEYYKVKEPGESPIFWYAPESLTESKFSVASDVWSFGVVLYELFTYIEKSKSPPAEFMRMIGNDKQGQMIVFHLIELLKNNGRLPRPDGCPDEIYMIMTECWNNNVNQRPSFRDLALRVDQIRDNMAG
T1 sequence (O60674 536-812 V617F/W659A/W777A/F794H): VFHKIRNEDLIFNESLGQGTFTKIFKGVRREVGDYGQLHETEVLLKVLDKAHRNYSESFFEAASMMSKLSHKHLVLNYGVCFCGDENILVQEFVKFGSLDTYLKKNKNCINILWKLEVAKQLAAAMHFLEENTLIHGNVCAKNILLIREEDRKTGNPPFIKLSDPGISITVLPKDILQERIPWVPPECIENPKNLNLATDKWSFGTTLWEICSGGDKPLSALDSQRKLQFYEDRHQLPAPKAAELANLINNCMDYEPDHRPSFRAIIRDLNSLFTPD
Chain of catalytic domain (JH1, amino acids 808-1132) of human JAK2 (O60674 808-1132 limits assumed): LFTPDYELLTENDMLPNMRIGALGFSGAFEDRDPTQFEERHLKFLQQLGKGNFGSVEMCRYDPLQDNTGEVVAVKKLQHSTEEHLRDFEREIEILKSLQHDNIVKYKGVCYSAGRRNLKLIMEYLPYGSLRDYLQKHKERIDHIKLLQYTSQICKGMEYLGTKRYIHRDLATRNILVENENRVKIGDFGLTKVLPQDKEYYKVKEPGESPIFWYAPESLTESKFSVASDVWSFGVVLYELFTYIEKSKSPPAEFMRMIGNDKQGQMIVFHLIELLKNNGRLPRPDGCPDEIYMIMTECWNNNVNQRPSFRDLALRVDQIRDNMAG
T3 sequence (O60674 536-812 W659A/W777A/F794H): as the sequence (O60674 536-812 V617F/W659A/W777A/F794H) above, with F82V counted along it

| Compound | IC50 [1] [nM] | IC50 [2] [nM] | IC50 [3] [nM] | IC50 [4] [nM] |
| --- | --- | --- | --- | --- |
| [2H]C([2H])([2H])n1c(=O)n([C@@H]2CC[C@@H](NC(=O)OC)C2)c2cc(Nc3cc(-c4cnn(C)c4)cc(-c4ncc(C(C)(C)O)s4)n3)ncc21 [Example 107, Methyl ((1R,3R)-3-(6-((6-(5-(2-hydroxypropan-2-yl)thiazol-2-yl)-4-(1-methyl-1H-pyrazol-4-yl)pyridin-2-yl)amino)-3-(methyl-d3)-2-oxo-2,3-dihydro-1H-imidazo[4,5-c]pyridin-1-yl)cyclopentyl)carbamate] | > 1000 | ≤ 10 | > 1000 | ≤ 10 |
| [2H]C([2H])([2H])n1c(=O)n([C@@H]2CC[C@@H](NC(=O)OC)C2)c2cc(Nc3cc(C(C)(C)O)cc(-c4ncc(C(F)(F)F)s4)n3)ncc21 [Example 100, Methyl ((1R,3R)-3-(6-((4-(2-hydroxypropan-2-yl)-6-(5-(trifluoromethyl)thiazol-2-yl)pyridin-2-yl)amino)-3-(methyl-d3)-2-oxo-2,3-dihydro-1H-imidazo[4,5-c]pyridin-1-yl)cyclopentyl)carbamate] | > 1000 | ≤ 10 | > 1000 | ≤ 10 |
| [2H]C([2H])([2H])n1c(=O)n([C@@H]2CC[C@@H](NC(=O)OC)C2)c2cc(Nc3cc(C(=O)N4CCN5CCCCC5C4)cc(-c4ccc5c(c4)OCCO5)n3)ncc21 (stereo partly drawn) [Example 76, Methyl ((1R,3R)-3-(6-((6-(2,3-dihydrobenzo[b][1,4]dioxin-6-yl)-4-(octahydro-2H-pyrido[1,2-a]pyrazine-2-carbonyl)pyridin-2-yl)amino)-3-(methyl-d3)-2-oxo-2,3-dihydro-1H-imidazo[4,5-c]pyridin-1-yl)cyclopentyl)carbamate] | > 1000 | ≤ 10 | > 1000 | ≤ 10 |
| [2H]C([2H])([2H])n1c(=O)n([C@@H]2CC[C@@H](NC(=O)OC)C2)c2cc(Nc3ccc4ncc(C5CC5)n4n3)ncc21 [Example 54, Methyl ((1R,3R)-3-(6-((3-cyclopropylimidazo[1,2-b]pyridazin-6-yl)amino)-3-(methyl-d3)-2-oxo-2,3-dihydro-1H-imidazo[4,5-c]pyridin-1-yl)cyclopentyl)carbamate] | > 1000 | ≤ 10 | > 1000 | ≤ 10 |
| [2H]C([2H])([2H])n1c(=O)n([C@@H]2CC[C@@H](NC(=O)OC)C2)c2cc(Nc3cc(COC4CCC4)cc(-c4ccc5c(c4)OCCO5)n3)ncc21 [Example 63, Methyl ((1R,3R)-3-(6-((4-(cyclobutoxymethyl)-6-(2,3-dihydrobenzo[b][1,4]dioxin-6-yl)pyridin-2-yl)amino)-3-(methyl-d3)-2-oxo-2,3-dihydro-1H-imidazo[4,5-c]pyridin-1-yl)cyclopentyl)carbamate] | > 1000 | 10 to 100 | > 1000 | ≤ 10 |
| COC(=O)Nc1cc(Nc2cc3c(cn2)n(C)c(=O)n3[C@H]2C[C@H](C#N)C2)cc(-c2cnn(C)c2)c1 [Example 28, Methyl (3-((1-((1r,3r)-3-cyanocyclobutyl)-3-methyl-2-oxo-2,3-dihydro-1H-imidazo[4,5-c]pyridin-6-yl)amino)-5-(1-methyl-1H-pyrazol-4-yl)phenyl)carbamate] | > 1000 | 100 to 500 | > 1000 | 10 to 100 |
| CCOC(=O)c1cnc(Nc2cc(Nc3cc4c(cn3)n(C)c(=O)n4[C@@H]3CC[C@@H](NC(=O)OC)C3)cc(-c3cccc(C#N)c3)c2)o1 [Example 1, Ethyl 2-((3′-cyano-5-((1-((1R,3R)-3-((methoxycarbonyl)amino)cyclopentyl)-3-methyl-2-oxo-2,3-dihydro-1H-imidazo[4,5-c]pyridin-6-yl)amino)-[1,1′-biphenyl]-3-yl)amino)oxazole-5-carboxylate] | > 1000 | 100 to 500 | > 1000 | 10 to 100 |
| Cn1c(=O)n(C2CCCC2)c2cc(Nc3cc(NC(=O)OC4CCC4)cc(-c4cnn(C5CC5)c4)c3)ncc21 [Example 61, Cyclobutyl (3-((1-cyclopentyl-3-methyl-2-oxo-2,3-dihydro-1H-imidazo[4,5-c]pyridin-6-yl)amino)-5-(1-cyclopropyl-1H-pyrazol-4-yl)phenyl)carbamate] | > 1000 | 100 to 500 | > 1000 | 10 to 100 |
| [2H]C([2H])([2H])n1c(=O)n([C@@H]2CC[C@@H](NC(=O)OC)C2)c2cc(Nc3cc(C4CCN(C(C)=O)CC4)cc(-c4ncc(C(F)(F)F)s4)n3)ncc21 [Example 105, Methyl ((1R,3R)-3-(6-((4-(1-acetylpiperidin-4-yl)-6-(5-(trifluoromethyl)thiazol-2-yl)pyridin-2-yl)amino)-3-(methyl-d3)-2-oxo-2,3-dihydro-1H-imidazo[4,5-c]pyridin-1-yl)cyclopentyl)carbamate] | > 1000 | ≤ 10 | > 1000 | ≤ 10 |
| COC(=O)Nc1cc(Nc2cc3c(cn2)n(C)c(=O)n3C2[C@H]3CN(C(=O)OC)C[C@@H]23)cc(-c2cnn(C)c2)c1 (stereo partly drawn) [Example 39, Methyl (1R,5S)-6-(6-((3-((methoxycarbonyl)amino)-5-(1-methyl-1H-pyrazol-4-yl)phenyl)amino)-3-methyl-2-oxo-2,3-dihydro-1H-imidazo[4,5-c]pyridin-1-yl)-3-azabicyclo[3.1.0]hexane-3-carboxylate] | > 1000 | 100 to 500 | > 1000 | 100 to 500 |
| COC(=O)N[C@@H]1CC[C@@H](n2c(=O)n(C)c3cnc(Nc4cccc(-c5ccc(OC)nc5)n4)cc32)C1 [Example 5, Methyl ((1R,3R)-3-(6-((6′-methoxy-[2,3′-bipyridin]-6-yl)amino)-3-methyl-2-oxo-2,3-dihydro-1H-imidazo[4,5-c]pyridin-1-yl)cyclopentyl)carbamate] | > 1000 | ≤ 10 | > 1000 | ≤ 10 |
| Cn1cc(-c2cc(NC(=O)OC3CCC3)cc(Nc3cc4c(cn3)n(C)c(=O)n4[C@@H]3CC[C@@H](NC(=O)OC4CCOCC4)C3)c2)cn1 [Example 48, Tetrahydro-2H-pyran-4-yl ((1R,3R)-3-(6-((3-((cyclobutoxycarbonyl)amino)-5-(1-methyl-1H-pyrazol-4-yl)phenyl)amino)-3-methyl-2-oxo-2,3-dihydro-1H-imidazo[4,5-c]pyridin-1-yl)cyclopentyl)carbamate] | > 1000 | 10 to 100 | > 1000 | 10 to 100 |
| [2H]C([2H])([2H])n1c(=O)n([C@@H]2CC[C@@H](NC(=O)OC)C2)c2cc(Nc3cc(C(=O)N4CCC(C#N)CC4)c4cccc(C(F)(F)F)c4n3)ncc21 [Example 6, Methyl ((1R,3R)-3-(6-((4-(4-cyanopiperidine-1-carbonyl)-8-(trifluoromethyl)quinolin-2-yl)amino)-3-(methyl-d3)-2-oxo-2,3-dihydro-1H-imidazo[4,5-c]pyridin-1-yl)cyclopentyl)carbamate] | 100 to 500 | ≤ 10 | 100 to 500 | ≤ 10 |
| Cn1cc(-c2cc(NC(=O)OC3CCC3)cc(Nc3cc4c(cn3)n(C)c(=O)n4[C@@H]3CC[C@@H](NC(=O)Oc4ccc(F)cc4)C3)c2)cn1 [Example 49, 4-Fluorophenyl ((1R,3R)-3-(6-((3-((cyclobutoxycarbonyl)amino)-5-(1-methyl-1H-pyrazol-4-yl)phenyl)amino)-3-methyl-2-oxo-2,3-dihydro-1H-imidazo[4,5-c]pyridin-1-yl)cyclopentyl)carbamate] | > 1000 | ≤ 10 | > 1000 | ≤ 10 |
| CCOC(=O)NC1CC2(C1)CC(n1c(=O)n(C)c3cnc(Nc4cc(NC(=O)OC)cc(-c5cnn(C)c5)c4)cc31)C2 (stereo not drawn) [Example 25, Methyl (3-((1-(6-((ethoxycarbonyl)amino)spiro[3.3]heptan-2-yl)-3-methyl-2-oxo-2,3-dihydro-1H-imidazo[4,5-c]pyridin-6-yl)amino)-5-(1-methyl-1H-pyrazol-4-yl)phenyl)carbamate] | > 1000 | 100 to 500 | > 1000 | 10 to 100 |
